# Measurements as given in PMC11203957, “Naphthoquinone-Quinolone Hybrids with Antitumor Effects on Breast Cancer Cell Lines—From the Synthesis to 3D-Cell Culture Effects” (International Journal of Molecular Sciences, 2024).
# Columns and labels:
# [1] = tested on: human gastric cancer cells (MKN-74); parameters: method as in PMID 23651559, PMID 25457491; settings: cited from earlier work
# [2] = tested on: colorectal cancer cells (HCT-15); parameters: method as in PMID 23651559, PMID 25457491; settings: cited from earlier work
# [3] = tested on: MKN-74 cocultured with stromal cells Hs738; parameters: method as in PMID 23632919; settings: coculture with stromal cells; cited from earlier work
# [4] = tested on: HCT-15 cocultured with stromal cells CCd-18Co; parameters: method as in PMID 23632919; settings: coculture with stromal cells; cited from earlier work
# [5] = tested on: MCF-7 human breast cancer cells; parameters: method as in PMID 33039723; settings: cited from earlier work
# MCF-7 [6] = tested on: MCF-7; parameters: method as in PMID 30129412; settings: cited from earlier work
# MDA-MB-231 [7] = tested on: MDA-MB-231; parameters: method as in PMID 30129412; settings: cited from earlier work
# 4T1 = tested on: 4T1; parameters: method as in PMID 30129412; settings: cited from earlier work
# [8] = tested on: non-cancerous cell line MCF10A; parameters: method as in PMID 30129412; settings: cited from earlier work
# MCF-7 [9] = assay: MTT cell viability assay, MCF-7 (2D culture); format: cell-based, human
# Experimental: (§1) Our first approach to assessing the anticancer activity of the novel 1,4-naphthoquinone/4-quinolone conjugates 11a–f on breast cancer cells involved comparing their effects in the MTT cell viability assay to determine the half-maximal inhibitory concentration (IC50) in the 2D cell culture model. Doxorubicin and 1,4-naphthoquinone were used as controls. Concentration-response curves were obtained with the conjugates at concentrations ranging from 0 to 200 µM. […] This observation aligns with the structural characteristics of this derivative, which features the largest alkyl substituent at position R^1.
# (§2) The IC50 values were calculated using GraphPad Prism v. 8.0.1, and the selectivity index was estimated as the ratio between the IC50 value of MCF10A/IC50 value of MDA-MB-231 or MCF-7 [33], for each compound.
# MDA-MB-231 [10] = assay: MTT cell viability assay, MDA-MB-231 (2D culture); format: cell-based, human
# Experimental: as §1, §2
# MCF-7 cells = assay: Annexin V/PI apoptosis assay, MCF-7; format: cell-based, human; settings: 50 µM
# Experimental: We investigated apoptosis induction through the annexin V/PI protocol, as described in Section 3. Doxorubicin, 1,4-naphthoquinone, and cisplatin were used as controls. […] For MDA-MB-231 cells (Figure 5B), the effects observed were more prominent at the concentrations tested.
# For the apoptosis assay, the manufacturer’s instructions were followed (Dead Cell Apoptosis Kit with Annexin V for Flow Cytometry, Thermo Fisher Scientific, MA, USA). The cells were analyzed in a Countess II FL cell counter (Thermo Fisher Scientific, Waltham, MA, USA).
# Figure 5 Naphthoquinone-quinolone hybrids induce apoptosis in MCF-7 (A) and MDA-MB-231 (B) cells at different levels.
# MDA-MB-231 cells = assay: Clonogenic assay, MDA-MB-231; format: cell-based, human; settings: 25 µM, 24 h treatment, about 14 days growth
# Excerpt: The clonogenic assay is an effective tool for investigating individual cells’ ability to form colonies. Tumor cells with the ability to generate an expanding family of descendants are clonogenic. Therefore, a clonogenic assay is a simple method to verify one of the important characteristics of cancer cells, which is the ability to detach from the site of origin and to form metastases in other locations. […] For instance, 90–99% of the tumor cells in FaDU tumors, a type of human squamous cell carcinoma observed in nude mice, are non-clonogenic. To achieve the main goal of cancer treatment, which is tumor eradication, it is necessary to inactivate all clonogenic cells through either cell killing or the induction of a permanent state of dormancy, thereby eliminating their clonogenic capacity. The assessment of the potential of a drug to achieve a curative outcome, i.e., effectively neutralizing clonogenic tumor cells, requires the utilization of experimental endpoints that accurately reflect the response of clonogenic cells. Clonogenic endpoints hold particular significance when novel anticancer agents are incorporated into curative therapeutic regimens, such as in combination with radiotherapy or chemotherapy. Thus, clonogenic assays were conducted for compounds 11a–f and 1,4-naphthoquinone.
# Figure 6 The inhibition of colony formation by compounds 11a–f using MCF-7 (A,C) and MDA-MB-231 (B,D) cell lines. Cells were treated with derivatives 11a–f at 25 µM for 24 h. Subsequently, 400 cells were plated on 6-well plates for approximately 14 days. Then, cells were stained with crystal violet dye to visualize the colonies formed.
# MCF-7 spheroids = assay: 3D-cell culture (spheroids), morphology and acid phosphatase viability, MCF-7; format: cell-based, human; settings: 25 µM, 48 h
# Excerpt: 3D-cell cultures display features that resemble in vivo tumors: due to their tridimensional structure, cells are not provided with the same amounts of oxygen and nutrients in the center as on the surface, resulting in a gradient that leads to the formation of a necrotic core, similar to the in vivo tumor environment. In the 3D-cell culture model used here, spheroids are formed due to low interaction with the microplate bottom, promoted by its coating with agarose, and strong cell-to-cell interactions in MCF-7 cells, generating a finely compact and homogeneous spheroid. For MDA-MB-231 cells, the addition of collagen I is an extra stimulus necessary for spheroid stabilization. Spheroids were prepared and grown for 48 h and then treated with the compounds at 25 µM. After 48 h, morphological changes were observed, and their viabilities were measured as described in Section 3. The exposure to the compounds for 48 h promoted visible changes in the morphologies of spheroids for both cell lines when compared to the controls (Figure 8). […] While it is more complicated to imply changes in the proliferative (surface) region of the MDA-MB-231 spheroids (Figure 8B), they are observed together with morphological changes after treatment, making them appear more crumbly and lose their round shape. These findings are in line with the viability test, which detected a reduction in the viabilities for all of them, which is significant compared to the control (p < 0.05), except for 11a in MDA-MB-231 spheroids (Figure 8C,D). We should also highlight that the concentrations necessary for an effect on spheroids are expected to be higher when compared to 2D-cell culture models. Here, we observed changes using 25 µM of each compound, as performed in the other experiments.
# The procedure was performed as described by Gong et al., with a few modifications. A total of 5000 cells per well were plated on 96-well plates with bottoms previously covered with 50 µL of a 1% agarose solution. The plates were then centrifuged at 300× g for 10 min. For MDA-MB-231 cells, collagen I from rat tail (Gibco) was added to a 3 µg/mL final concentration in the cell suspension. […] The cell spheroids/aggregates were treated with fresh medium added to the compounds and their viability was evaluated after 48 h. Spheroids were photographed with an inverted microscope Bel INV-100 (Bel Engineering, Monza, Italy) equipped with a digital camera.
# To measure spheroids viability, this viability assay was performed following Friedrich et al.. The medium was removed from wells and spheroids were washed with PBS. Then, 100 µL of a solution containing 2 mg/mL p-nitrophenyl phosphate (PNPP), 0.1 M citric acid, and 0.1% (v/v) Triton X, pH 5.0 were added. […]
# MDA-MB-231 spheroids = assay: 3D-cell culture (spheroids), morphology and acid phosphatase viability, MDA-MB-231; format: cell-based, human; settings: 25 µM, vs control, p < 0.05
# Excerpt: 3D-cell cultures display features that resemble in vivo tumors: due to their tridimensional structure, cells are not provided with the same amounts of oxygen and nutrients in the center as on the surface, resulting in a gradient that leads to the formation of a necrotic core, similar to the in vivo tumor environment. In the 3D-cell culture model used here, spheroids are formed due to low interaction with the microplate bottom, promoted by its coating with agarose, and strong cell-to-cell interactions in MCF-7 cells, generating a finely compact and homogeneous spheroid. For MDA-MB-231 cells, the addition of collagen I is an extra stimulus necessary for spheroid stabilization. Spheroids were prepared and grown for 48 h and then treated with the compounds at 25 µM. After 48 h, morphological changes were observed, and their viabilities were measured as described in Section 3. […] These findings are in line with the viability test, which detected a reduction in the viabilities for all of them, which is significant compared to the control (p < 0.05), except for 11a in MDA-MB-231 spheroids (Figure 8C,D). […]
# The procedure was performed as described by Gong et al., with a few modifications. […] The cell spheroids/aggregates were treated with fresh medium added to the compounds and their viability was evaluated after 48 h. […]
# MCF10A = assay: MTT cell viability assay, non-tumor MCF10A
# [11] = Solubility in the culture medium (inferred from MTT curves); format: physicochemical; settings: concentrations >25 µM
# Experimental: as §1
# [12] = tested on: refractory invasive prostate cancer cells (DU145); parameters: method as in PMID 18974148; settings: cited from earlier work
# tumor = tested on: tumor; parameters: method as in PMID 18974148; settings: 2 mg/kg (body weight), three weeks of treatment; cited from earlier work
# [13] = tested on: non-tumorigenic prostate epithelial cells (RWPE-1); settings: cited from earlier work
# [14] = low concentrations (<25 µM), effect plateaus above 25 µM
smiles,measurement,setting,value
"CSC(=NCn1c(C/C=C(\C)CCC=C(C)C)cc(=O)c2ccccc21)SC [Compound 4, intervenolin]",IC50,[1],7 µM
same,IC50,[2],3.7 µM
same,IC50,[3],0.4 µM
same,IC50,[4],0.5 µM
Cc1ccc(NC(=O)c2ccc(NC3=C(Cl)C(=O)c4ccccc4C3=O)cc2)nc1 [Compound 7],cytotoxicity against MCF-7,[5],high cytotoxicity
CCOC(=O)c1cn(CC)c2ccc(-n3cc(COC4=C(CC=C(C)C)C(=O)c5ccccc5C4=O)nn3)cc2c1=O [Compound 10],activity against MCF-7,MCF-7 [6],demonstrated activity
same,activity against MDA-MB-231,MDA-MB-231 [7],demonstrated activity
same,activity against 4T1,4T1,demonstrated activity
same,cytotoxicity against MCF10A,[8],no significant cytotoxicity
"CCOC(=O)c1cn(CC)c2ccc(C3=CC(=O)c4ccccc4C3=O)cc2c1=O [Compound 11a, Ethyl 6-(1,4-dioxo-1,4-dihydronaphthalen-2-yl)-1-ethyl-4-oxo-1,4-dihydroquinoline-3-carboxylate]",IC50,"MCF-7 [9]; Homo sapiens, MCF7, MTT, 24 h treatment, 2D culture, read-out: IC50 ± SEM MCF-7",18.7 ± 1.1 µM
same,SI IC50 MCF10A/IC50 MCF-7,MCF-7 [9]; selectivity index,0.57 ± 0.12
same,IC50,"MDA-MB-231 [10]; Homo sapiens, MDA-MB-231, MTT, 24 h treatment, 2D culture, read-out: IC50 ± SEM MDA-MB-231",9.16 ± 1 µM
same,SI IC50 MCF10A/ IC50 MDA-MB-231,MDA-MB-231 [10]; selectivity index,1.15 ± 0.15
same,"early apoptosis induction (annexin V/PI), MCF-7",MCF-7 cells,comparable
same,"colony formation, MDA-MB-231",MDA-MB-231 cells,most effective
same,"spheroid morphology, MCF-7",MCF-7 spheroids,changes in the morphology
same,"spheroid viability (acid phosphatase), MDA-MB-231",MDA-MB-231 spheroids,"significant decrease was observed for all compounds, except for 11a"
same,IC50,"MCF10A; Homo sapiens, MCF-10A, 24 h, read-out: IC50 ± SEM MCF10A",10.6 ± 1.2 µM
same,cytotoxicity effect in MCF10A compared with doxorubicin,MCF10A; relative to doxorubicin,seven times lower
"O=C1C=C(c2ccc3c(c2)c(=O)c(C(=O)O)cn3Cc2ccccc2)C(=O)c2ccccc21 [Compound 11e, 1-benzyl-6-(1,4-dioxo-1,4-dihydronaphthalen-2-yl)-4-oxo-1,4-dihydroquinoline-3-carboxylic acid]","anticancer activity in MTT concentration-response curve, MCF-7",MCF-7 [9]; [14],comparable to the most active derivatives at low concentrations
same,"anticancer activity in MTT concentration-response curve, MDA-MB-231",MDA-MB-231 [10]; [14],comparable to the most active derivatives at low concentrations
same,solubility in the medium,[11],low solubility
same,melting point,,> 300 °C
CC1=CC(=O)c2c(O)cccc2C1=O [plumbagin],apoptosis induction in DU145,[12],selectively induces apoptosis
same,tumor reduction,tumor,90%
same,effect on RWPE-1,[13],without affecting
